Reference: patent publication US20240156104A1, “FUNGI-DERIVED COMPOSITION, ITS PRODUCTION PROCESS AND USES” (NATURAL RESOURCES INSTITUTE FINLAND (LUKE), priority 2021, published 2024)

Tested on: coxsackievirus A9 (CVA9)
Test: cytopathic effect (CPE) inhibition assay against CVA9 in A549 cells
Format: cell-based
Settings: virus treated 37° C. 1 hour; for antiviral activity of commercial ganoderic acid against CVA9 (FIG. 10A): 100 μM, 500 μM, 1 mM, 5 mM and 10 mM; for antiviral activity of commercial ganoderic acids against CVA9 (FIG. 10B): 12.5 μM, 25 μM, 50 μM, 100 μM and 500 μM, MOI 100

SMILES | antiviral activity of commercial ganoderic acid against CVA9 (FIG. 10A) (MOI 66.7) | antiviral activity of commercial ganoderic acid against CVA9 (FIG. 10A) (MOI 66.7, listed as Ganoderic Acid A) | antiviral activity of commercial ganoderic acids against CVA9 (FIG. 10B)
C[C@H](CC(=O)C[C@@H](C)[C@H]1C[C@H](O)[C@@]2(C)C3=C(C(=O)C[C@]12C)[C@@]1(C)CCC(=O)C(C)(C)[C@@H]1C[C@@H]3O)C(=O)O [GA A, Ganoderic Acid A] | fails to demonstrate any antiviral activity | does not possess any antiviral activity | –
CC(=O)O[C@H]1C[C@H]([C@H](C)CC/C=C(\C)C(=O)O)[C@@]2(C)CC=C3C(=CC[C@H]4C(C)(C)C(=O)CC[C@]34C)[C@]12C [GA TQ, Ganoderic Acid TQ] | – | – | fails to demonstrate any antiviral activity
C/C(=C\CC[C@@H](C)[C@H]1C[C@H](O)[C@@]2(C)C3=CC[C@H]4C(C)(C)C(=O)CC[C@]4(C)C3=CC[C@]12C)C(=O)O [GA TR, Ganoderic Acid TR] | – | – | fails to demonstrate any antiviral activity
C/C(=C\CC[C@@H](C)[C@H]1CC[C@@]2(C)C3=CC[C@H]4C(C)(C)[C@@H](O)CC[C@]4(C)C3=CC[C@]12C)C(=O)O [GA Y, Ganoderic Acid Y] | – | – | fails to demonstrate any antiviral activity
